Patent publication US7262185B2, “Benzazepine derivative, process for producing the same, and use” (Takeda Chemical Industries Ltd., priority 2001, dated 2007)

What was measured:
[1] = target: T1, human CCR5 chemokine receptor (Homo sapiens, UniProt P51681); assay: Inhibition of [125I]-RANTES binding to CCR5/CHO cells (CCR5 antagonistic activity); conditions: test compound 1 μM, [125I]-RANTES as ligand, room temperature; for inhibition at 1 µM: 40 min, read-out: Binding Inhibitory Ratio (%); for Binding Inhibitory Ratio (%): 40 minutes
T1 construct: expressed in transfected cells
Protocol: Cloning of CCR5 gene from human spleen cDNA was conducted using the PCR method. Using spleen cDNA (0.5 ng) (TOYOBO CO., LTD, QUICK-Clone cDNA) as a template, PCR was performed in a DNA Thermal Cycler 480 (manufactured by Perkin Elmer) (reaction conditions: 30 cycles of 95° C. for 1 minute, 60° C. for 1 minute, and 75° C. for 5 minutes) by adding primer sets, SEQ. ID NO: 1 (sequence length: 34; sequence type: nucleic acid; chain number: single strand; topology: linear; kind of sequence: other nucleic acid synthetic. DNA) described in Experimental. Example (1) of WO 99/32100, and SEQ ID NO: 2 (sequence length: 34; sequence type: nucleic acid; chain number: single strand; topology: linear; kind of sequence: other nucleic acid synthetic. DNA) described in Experimental. Example (1) of WO 99/32100, (25 pmol, respectively), which were prepared referring to the nucleotide sequence of CCR5 gene, as reported by Samson et al. (Biochemistry 35 (11), 3362-3367 (1996)) and by using TaKaRa. EX Taq (Takara Shuzo). The resultant. PCR product was subjected to agarose gel electrophoresis to collect an approximately 1.0 kb. DNA fragment, which was subjected to an Original TA Cloning Kit (Funakoshi Co., Ltd.) to carry out cloning of CCR5 gene.
The plasmid obtained above was digested with restriction enzymes XbaI (Takara Shuzo Co., Ltd.) and BamHI (Takara Shuzo Co., Ltd.), and then subjected to agarose gel electrophoresis to collect DNA fragment of about 1.0 kb. The DNA fragment and plasmid pcDNA 3.1 (Funakoshi. Co., Ltd.) for expression in animal cells, which was previously digested with XbaI and BamHI, were mixed and ligated by DNA Ligation Kit Ver. 2 (Takara Shuzo Co., Ltd.). The resulting plasmid was subjected to transformation into. E. coli JM109 competent cells (Takara Shuzo Co., Ltd.) to obtain plasmid pCKR5.
CHO-K1 cells were cultured in a 750-ml tissue culture flask (Becton, Dickinson and Company.) using. Ham F12 medium (NIHON PHARMACEUTICAL CO., LTD.) containing 10% fetal bovine serum (Lifetech Oriental) and were collected using 0.5 g/L trypsin-0.2 g/L EDTA (Lifetech Oriental). The cells were washed with PBS (Lifetech Oriental), centrifuged (1000 rpm, 5 minutes), and suspended in PBS. The DNA was introduced into the cells using a Gene Pulser (Bio-Rad Laboratories, Inc.) under the following conditions. Namely, 8×10^6 cells and 10 μg of plasmid pCKR5 for expression of human CCR5 were placed in a cuvette having a 0.4-cm gap, and electroporation was carried out with a voltage 0.25 kV and 960 μF of capacitance. Then, the cells were transferred into Ham's. F12 medium containing 10% fetal bovine serum, and incubated for 24 hours. The cells were collected, centrifuged, and suspended in Ham' F12 medium containing 10% fetal bovine serum and Geneticin (Lifetech Oriental) at a concentration of 500 μg/ml. The suspension of cells was diluted to a concentration of 10^4 cells/ml, and was inoculated onto 96-well plate (Becton Dickinson), to obtain Geneticin-resistant strain.
Then, resulting. Geneticin-resistant strain were cultured on 96-well plate (Becton Dickinson), and CCR5-expressing cells were selected from the resistant cells. Namely, in an assay buffer, (Ham's F12 medium containing 0.5% BSA, and 20 mM HEPES (Wako Pure Chemical Ind., pH 7.2)) to which was added […][125I]-RANTES (Amersham) as a ligand, the cells were subjected to a binding reaction at room temperature for 40 minutes. Wells containing the cells were washed with ice-cooled PBS, and 50 μl/well of 1M NaOH was added and stirred. The cells to which the ligand was bound specifically, i.e., CCR5/CHO cells, were selected by measurement of radioactivity using a […].
The CCR5/CHO cells were inoculated onto 96-well microplate at a concentration of 5×10^4 cells/well, and were cultured for 24 hours. After removal of the medium by aspiration, to each well was added an assay buffer containing a test compound (1 μM), and [125I]/RANTES (Amersham) used as a ligand at a concentration of […]. […]

T1 sequence (P51681 whole entry): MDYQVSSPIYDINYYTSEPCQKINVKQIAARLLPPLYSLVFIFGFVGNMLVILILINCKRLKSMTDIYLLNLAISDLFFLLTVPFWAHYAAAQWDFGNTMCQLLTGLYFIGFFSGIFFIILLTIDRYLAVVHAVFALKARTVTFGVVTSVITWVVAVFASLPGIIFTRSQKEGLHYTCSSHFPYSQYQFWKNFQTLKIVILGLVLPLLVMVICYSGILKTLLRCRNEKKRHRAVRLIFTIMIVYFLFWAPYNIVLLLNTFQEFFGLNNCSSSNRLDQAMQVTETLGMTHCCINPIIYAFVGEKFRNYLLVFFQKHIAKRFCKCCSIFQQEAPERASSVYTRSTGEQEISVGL

Binding Inhibitory Ratio (%) [1] | SMILES | inhibition at 1 µM [1] | melting point
 | CCCCOCCOc1ccc(-c2ccc3c(c2)C=C(C(=O)Nc2ccc(SCc4nncn4CCC)c(C)c2)CCN3CC(C)C)cc1 [Compound 40, 7-[4-(2-butoxyethoxy)phenyl]-1-isobutyl-N-[3-methyl-4-[(4-propyl-4H-1,2,4-triazol-3-yl)methylthio]phenyl]-2,3-dihydro-1H-1-benzazepine-4-carboxamide] | 90% | 104 to 107 °C
 | CCCCOCCOc1ccc(-c2ccc3c(c2)C=C(C(=O)Nc2ccc(CCCn4cnnc4)cc2)CCN3CC(C)C)cc1 [Compound 63, 7-[4-(2-butoxyethoxy)phenyl]-1-isobutyl-N-[4-[3-(4H-1,2,4-triazol-4-yl)propyl]phenyl]-2,3-dihydro-1H-1-benzazepine-4-carboxamide] | 96% | 165 to 167 °C
 | CCCCOCCOc1ccc(-c2ccc3c(c2)C=C(C(=O)Nc2ccc([C@H](O)c4cccc[n+]4[O-])cc2)CCN3Cc2cnn(C)c2)cc1 [Compound 87, 7-[4-(2-butoxyethoxy)phenyl]-N-[4-[(S)-hydroxy(1-oxidopyridin-2-yl)methyl]phenyl]-1-(1-methylpyrazol-4-ylmethyl)-2,3-dihydro-1H-1-benzazepine-4-carboxamide] | 89% | 94 to 97 °C
 | CCCCOCCOc1ccc(-c2ccc3c(c2)C=C(C(=O)Nc2ccc([S+]([O-])Cc4nncn4CC)cc2)CCN3CC(C)C)cc1 (stereo not shown) [Compound 135, 7-[4-(2-butoxyethoxy)phenyl]-N-[4-(4-ethyl-4H-1,2,4-triazol-3-ylmethylsulfinyl)phenyl]-1-isobutyl-2,3-dihydro-1H-benzazepine-4-carboxamide] | 100% | 102 to 104 °C
 | CCCCOCCOc1ccc(-c2ccc3c(c2)C=C(C(=O)Nc2ccc(SCc4nccn4CCCC(N)=O)cc2)CCN3CC(C)C)cc1 [Compound 415, N-[4-[[[1-(4-amino-4-oxobutyl)-1H-imidazol-2-yl]methyl]thio]phenyl]-7-[4-(2-butoxyethoxy)phenyl]-1-isobutyl-2,3-dihydro-1H-1-benzazepine-4-carboxamide] | 98% | 142 to 143 °C
 | CCCCOCCOc1ccc(-c2ccc3c(c2)C=C(C(=O)Nc2ccc([S+]([O-])Cc4nccn4CCCC(=O)NC)cc2)CCN3CC(C)C)cc1 (stereo not shown) [Compound 424, 7-[4-(2-butoxyethoxy)phenyl]-N-[4-[[[1-[4-(methylamino)-4-oxobutyl]-1H-imidazol-2-yl]methyl]sulfinyl]phenyl]-1-isobutyl-2,3-dihydro-1H-1-benzazepine-4-carboxamide] | 96% | 159 to 161 °C
 | CCCCOCCOc1ccc(-c2ccc3c(c2)C=C(C(=O)Nc2ccc([S+]([O-])Cc4cncn4CCOC(C)=O)cc2)CCN3CC(C)C)cc1 (stereo not shown) [Compound 427, [5-[[[4-[[[7-[4-(2-butoxyethoxy)phenyl]-1-isobutyl-2,3-dihydro-1H-1-benzazepin-4-yl]carbonyl]amino]phenyl]sulfinyl]methyl]-1H-imidazol-1-yl]ethyl acetate] | 100% | 
100% | CCCCOCCOc1ccc(-c2ccc3c(c2)C=C(C(=O)Nc2ccc(SCc4nccn4CCCO)cc2)CCN3CC(C)C)cc1 [Compound 436] |  | 
100% | CCCCOCCOc1ccc(-c2ccc3c(c2)C=C(C(=O)Nc2ccc([S+]([O-])Cc4nccn4CCCO)cc2)CCN3CC(C)C)cc1 (stereo not shown) [Compound 437] |  | 

SMILES | Binding Inhibitory Ratio (%) [1] | inhibition at 1 µM [1] | melting point
C#CCn1cncc1C[S+]([O-])c1ccc(NC(=O)C2=Cc3cc(-c4ccc(OCCOCCCC)cc4)ccc3N(CC(C)C)CC2)cc1 (stereo not shown) [Compound 443, 7-[4-(2-butoxyethoxy)phenyl]-1-isobutyl-N-[4-[[(1-(2-propin-1-yl)imidazol-5-yl)methyl]sulfinyl]phenyl]-2,3-dihydro-1H-1-benzazepine-4-carboxamide] | 100% |  | 
